Experiment [1] relates to c-Abl kinase (K562 cells). Briefly: In-vitro cell proliferation assay (MTT), K562 cells. It counts as cell-based. The settings on record: for inhibition at 0.001 µM / inhibition at 0.01 µM / inhibition at 0.1 µM: Homo sapiens. The method, then: In-vitro Cell Proliferation Assay
K562/U937 cells (2×10^4 per well) were incubated with the test compounds/vehicle in a total volume of 200 μL of media at 37° C. with 5% CO2. On day 4, 20 μL MTT 5 mg/ml was added and the cells were incubated for 4-5 hours followed by addition of 100 μL of 10% SDS prepared in 0.06N HCl. The cells were incubated overnight at 37° C. with 5% CO2. On Day 5 the optical density was measured at 570 nm with 630 nm as reference wavelength. The optical density in the vehicle treated wells was compared with that of the test compound treated wells.

The target of experiment [2] is mutated Abl (T315I) (human) (Homo sapiens, UniProt P00519, T315I). The experiment can be described thus: Mutated Abl (T315I) (human) kinase assay, 33P-ATP filter binding. It counts as biochemical. As to conditions: for inhibition at 0.003 µM: 3 nM; for inhibition at 0.03 µM: 30 nM. The method, then:
Mutated Abl (T315I) (Human)Kinase
In a final reaction volume of 25 μL, mutated Abl (T315I) (human) (5-10 mU) is incubated with 8 mM MOPS pH7.0, 0.2 mM EDTA, […] EAIYAAPFAKKK, 10 mM Mg(OAc)2 and [γ-33P-ATP] [specific activity approx. 500 cpm/pmol, concentration as required]. The reaction is initiated by the addition of the MgATP mix. After incubation for 40 minutes at room temperature, the reaction is stopped by the addition of 5 μL of a 3% phosphoric acid solution. 10 μL of the reaction is then spotted onto a P30 filtermat and washed three times for 5 minutes in 75 mM phosphoric acid and once in methanol prior to drying and scintillation counting.

In general, inhibition refers to the change of the read-out against control, counted positive when it falls. Lower therefore signals a response near the control.

Regarding `Cc1ccc(C(=O)NNC(=O)c2ccc(CN3CCN(C)CC3)cc2)cc1C#Cc1ccc(NC(=O)C2CC2)nc1` [I.7, Cyclopropanecarboxylic acid [5-(2-methyl-5-{N′-[4-(4-methylpiperazin-1-ylmethyl)benzoyl]-hydrazinocarbonyl}phenylethynyl)pyridin-2-yl]amide], in experiment [1] (1 nM), testing at 0.001 µM gave an inhibition of 24.6%. This molecule also gave an inhibition at 0.01 µM in experiment [1] (10 nM) of 78.6%. Moreover, in experiment [1] (100 nM), at 0.1 µM the inhibition was 85.9%.

In turn, `Cc1ccc(C(=O)NNC(=O)c2ccc(CN3CCN(C)CC3)c(C(F)(F)F)c2)cc1C#Cc1ccc(NC(=O)C2CC2)nc1` [I.11, Cyclopropanecarboxylic acid [5-(2-methyl-5-{N′-[4-(4-methylpiperazin-1-yl-methyl)-3-trifluoromethylbenzoyl]-hydrazinocarbonyl}phenylethynyl)pyridin-2-yl]amide] came in with an inhibition at 0.001 µM in experiment [1] (1 nM) of 54%. This molecule also showed an inhibition at 0.01 µM in experiment [1] (10 nM) of 58.3%. In experiment [1] (100 nM), this molecule had an inhibition at 0.1 µM of 57.2%.

As for `Cc1ccc(C(=O)NNC(=O)c2c(C)cccc2Cl)cc1C#Cc1ccc(NC(=O)CN2CCC(N(C)C)CC2)nc1` [I.4, N-(5-{5-[N′-(2-Chloro-6-methyl-benzoyl)hydrazinocarbonyl]-2-methyl-phenylethynyl}-pyridin-2-yl)-2-(4-dimethylaminopiperidin-1-yl)acetamide], in experiment [2], at 0.003 µM the inhibition was 70% and the inhibition at 0.03 µM came to 95%. Moreover, testing at 0.001 µM in experiment [1] (1 nM) gave an inhibition of 76.5%. Moreover, the inhibition at 0.01 µM in experiment [1] (10 nM) is 81.4%. Further, the inhibition at 0.1 µM in experiment [1] (100 nM) was found to be 86.9%.

On to `CCCC(=O)Nc1ccc(C#Cc2cc(C(=O)NNC(=O)c3c(C)cccc3Cl)ccc2C)cn1` [I.12], for which the “c-Abl kinase (K562 cells); % Inhibition” value in experiment [1] (1 nM) turned out to be 33.6%; in experiment [1] (10 nM), 80.6%.

In the case of `CC(=O)Nc1ccc(C#Cc2cc(C(=O)NNC(=O)c3c(C)cccc3Cl)ccc2C)cn1` [I.6, N-(5-{5-[N′-(2-Chloro-6-methyl-benzoyl)hydrazinocarbonyl]-2-methyl-phenylethynyl}-pyridin-2-yl)acetamide], in experiment [2], the inhibition at 0.003 µM was determined as 68% and the inhibition at 0.03 µM stood at 89%. Besides, the inhibition at 0.001 µM in experiment [1] (1 nM) was 88.4%. The molecule further displayed an inhibition at 0.01 µM in experiment [1] (10 nM) of 91.6%. The inhibition at 0.1 µM in experiment [1] (100 nM) came to 91%.

Consider `Cc1ccc(C(=O)NNC(=O)c2c(C)cccc2Cl)cc1C#Cc1ccc(NC(=O)C(F)(F)F)nc1` [I.10], for which the “c-Abl kinase (K562 cells); % Inhibition” value in experiment [1] (1 nM) stood at 39.8%; in experiment [1] (10 nM) it was 78.5%; in experiment [1] (100 nM), 73.3%.

For the molecule `Cc1ccc(C(=O)NNC(=O)c2c(C)cccc2Cl)cc1C#Cc1ccc(NC(=O)NC2CC2)nc1` [I.9, 1-(5-{5-[N′-(2-Chloro-6-methyl-benzoyl)-hydrazinocarbonyl]-2-methyl-phenylethynyl}-pyridin-2-yl)-3-cyclopropylurea], in experiment [1] (1 nM), 0.001 µM produced 61% inhibition. In experiment [1] (10 nM), this molecule displayed an inhibition at 0.01 µM of 83.6%. The same molecule had an inhibition at 0.1 µM in experiment [1] (100 nM) of 87.8%.

With `Cc1ccc(C(=O)NNC(=O)c2c(C)cccc2Cl)cc1C#Cc1ccc(NC(=O)CCN2CCN(C)CC2)nc1` [I.3, N-(5-{5-[N′-(2-Chloro-6-methylbenzoyl)hydrazinocarbonyl]-2-methyl-phenylethynyl}-pyridin-2-yl)-3-(4-methyl-piperazin-1-yl)propionamide], in experiment [2], at 0.003 µM the inhibition was 59% and the inhibition at 0.03 µM turned out to be 94%. For the same molecule, in experiment [1] (1 nM), the inhibition at 0.001 µM amounted to 75%. Moreover, the inhibition at 0.01 µM in experiment [1] (10 nM) is 85.5%. Also, in experiment [1] (100 nM), at 0.1 µM the inhibition was 87.9%.

The molecule `Cc1cn(-c2cc(C(=O)NNC(=O)c3ccc(C)c(C#Cc4ccc(NC(=O)C5CC5)nc4)c3)cc(C(F)(F)F)c2)cn1` [I.8, Cyclopropanecarboxylic acid [5-(2-methyl-5-{N′-[3-(4-methylimidazol-1-yl)-5-trifluoromethylbenzoyl]-hydrazinocarbonyl}phenylethynyl)pyridin-2-yl]amide] registered an inhibition at 0.001 µM in experiment [1] (1 nM) of 68.9%. Testing at 0.01 µM in experiment [1] (10 nM) gave an inhibition of 84%. This molecule registered an inhibition at 0.1 µM in experiment [1] (100 nM) of 86.1%.

In experiment [2], `Cc1ccc(C(=O)NNC(=O)c2c(C)cccc2Cl)cc1C#Cc1ccc(NC(=O)CN2CCC(N(C)C)C2)nc1` (centres unmarked) [I.5, N-(5-{5-[N′-(2-Chloro-6-methyl-benzoyl)hydrazinocarbonyl]-2-methyl-phenylethynyl}-pyridin-2-yl)-2-(3-dimethylaminopyrrolidin-1-yl)acetamide] registered an inhibition at 0.003 µM of 66% and an inhibition at 0.03 µM of 96%. The same molecule displayed an inhibition at 0.001 µM in experiment [1] (1 nM) of 71.4%. Further, the inhibition at 0.01 µM in experiment [1] (10 nM) stood at 81.7%. In experiment [1] (100 nM), 0.1 µM produced 82.1% inhibition.

Regarding `Cc1ccc(C(=O)NNC(=O)c2c(C)cccc2Cl)cc1C#Cc1ccc(NC(=O)CN(C)C)nc1` [I.2, N-(5-{5-[N′-(2-chloro-6-methylbenzoyl)hydrazinocarbonyl]-2-methyl-phenylethynyl}-pyridin-2-yl)-2-dimethylaminoacetamide], in experiment [2], the inhibition at 0.003 µM was found to be 50% and the inhibition at 0.03 µM was found to be 87%. For the same molecule, 0.001 µM produced 71.6% inhibition in experiment [1] (1 nM). In experiment [1] (10 nM), the inhibition at 0.01 µM is 82.5%. Further, at 0.1 µM the inhibition in experiment [1] (100 nM) was 82.9%.

In experiment [2], `Cc1ccc(C(=O)NNC(=O)c2c(C)cccc2Cl)cc1C#Cc1ccc(NC(=O)C2CC2)nc1` [I.1, cyclopropanecarboxylic acid (5-{5-[N′-(2-chloro-6-methylbenzoyl)hydrazinocarbonyl]-2-methyl-phenylethynyl}-pyridin-2-yl)amide] returned an inhibition at 0.003 µM of 87% and an inhibition at 0.03 µM of 98%. Besides, the inhibition at 0.001 µM in experiment [1] (1 nM) came to 84.7%. Moreover, in experiment [1] (10 nM), the inhibition at 0.01 µM was determined as 91.1%. The inhibition at 0.1 µM in experiment [1] (100 nM) was 87%.

Source of the values: patent US10150733B2, “Amidoheteroaryl aroyl hydrazide ethynes” (SUN PHARMA ADVANCED RESEARCH COMPANY LTD., priority 2015, dated 2018).
